According to ChEMBL document CHEMBL1135160, “Development of a genetic selection for catalytic antibodies” (Bioorg Med Chem Lett, 2002):

Legend:
[1] = Kinetic parameter for rate of conversion to PABA was determined; assay type: ADME
Escherichia coli = assay: Concentration required to sustain growth of Escherichia coli HDU-78; 1-10 nM; assay type: functional, organism-based

| SMILES | Km [1] [µM] | k cat [1] [s⁻¹] | Concentration (Escherichia coli) [nM] |
| --- | --- | --- | --- |
| CC(=O)CC(C)(O)CCOC(=O)Nc1ccc(C(=O)O)cc1 (stereo not drawn) | 150 | 0.000115 |  |
| Nc1ccc(C(=O)O)cc1 |  |  | 10 |
